Laboratory results: patent US7410757B1, “Method of screening disease depressant gene” (Keio University, priority 1999, dated 2008)
Entries after “also recorded” stand apart in the source; their conditions may differ. No end group written: not given here.

Tests used:
F11/EcR cells [1] = experiment: F11/EcR cell death caused by ecdysone-induced expression of polyglutamine Q79, trypan blue exclusion assay; format: cell-based; settings: 1 μM polypeptide, ecdysone 72 h
Experimental: F11/EcR cell experiment using ecdysone was conducted as follows: F11/EcR cells were seeded at 7×10^4/well into a 6-well plate; cultured for 12 to 16 hours in HamF-12 media containing 18% FBS; and were similarly transfected in the absence of serum for 3 hours with 1 μg of ecdysone-inducible plasmid alone, or with 1 μg of HN-encoding plasmid, as mentioned above. After culturing for 12 to 16 hours in HamF-12 media containing 18% FBS, the cells were cultured for 2 hours in HamF-12 media containing 10% FBS, then ecdysone (Ponasterone) was added to the media (final concentration of 40 μM). Cell death was measured 72 hours after ecdysone treatment. Experiments using synthetic HN polypeptides were conducted as follows: cells were similarly transfected for 3 hours with FAD genes in the absence of serum; cultured for 12 to 16 hours in HamF-12 media containing 18% FBS; cultured for 2 hours in HamF-12 media containing 10% FBS and various concentrations of HN polypeptide; and then, 40 μM Ponasterone was added to the media. Cell death was measured by trypan blue exclusion assay after 72 hours from the ecdysone treatment. HD/SCA-associated Q79 cDNAs were also similarly transfected, and the neurotoxicity was tested.
(§1) Trypan blue exclusion assay was performed as follows. […] Within 3 minutes of the trypan blue solution addition, stained cells were counted. Cell mortality was determined [100−cell survival rate (%)] based on the stained cell count. […] Specifically, 6 μM Calcein-AM {3′,6′-Di-(O-acetyl)-2′,7′-bis[N,N-bis(carboxymethyl)aminomethyl]fluorescein, tetraacetoxymethyl ester; Dojindo, Cat. #349-07201} was added to the neurons; and 30 minutes or longer after Calcein-AM treatment, fluorescence (ex=490 nm, em=515 nm) was observed by fluorescence microscopy, and measured by a spectrometer. Specific fluorescence was calculated by subtracting basal fluorescence from total fluorescence. Basal fluorescence was assigned to be the value calculated from linear trypan blue positivity-fluorescence intensity relationship, corresponding to 100% trypan blue positivity.

F11/EcR cells [2] = experiment: F11/EcR cell death caused by ecdysone-induced expression of FAD genes, trypan blue exclusion assay; format: cell-based; settings: treated with 1M sHN (so in the source); NL-APP, V642I APP, M146L PS-1 or N141I PS-2; ecdysone 72 h
Experimental: F11/EcR cell experiment using ecdysone was conducted as follows: F11/EcR cells were seeded at 7×10^4/well into a 6-well plate; cultured for 12 to 16 hours in HamF-12 media containing 18% FBS; and were similarly transfected in the absence of serum for 3 hours with 1 μg of ecdysone-inducible plasmid alone, or with 1 μg of HN-encoding plasmid, as mentioned above. After culturing for 12 to 16 hours in HamF-12 media containing 18% FBS, the cells were cultured for 2 hours in HamF-12 media containing 10% FBS, then ecdysone (Ponasterone) was added to the media (final concentration of 40 μM). Cell death was measured 72 hours after ecdysone treatment. […] Cell death was measured by trypan blue exclusion assay after 72 hours from the ecdysone treatment. […]
as §1, with “Specific fluorescence was calculated by subtracting basal fluorescence from total fluorescence. Basal fluorescence was assigned to be the value calculated from linear trypan blue positivity-fluorescence intensity relationship, corresponding to 100% trypan blue positivity.” left out

F11 cells [3] = experiment: F11 cell death induced by transfection of FAD genes, trypan blue exclusion assay; format: cell-based
Experimental: (§2) F11 cells (Platika, D. et al. (1985) Proc. Natl. Acad. Sci. U.S.A. 82, 3499-3503; Yamatsuji, T. et al. (1996) Science 272, 1349-1352) were cultured in HamF-12 media containing 18% fetal bovine serum (FBS) and antibiotics. 7×10^4/well of F11 cells were seeded into a 6-well plate; cultured in HamF-12 containing 18% FBS for 12 to 16 hours; transfected 3 hours with plasmids encoding FAD genes and plasmids encoding HN (pHN, and such) by lipofection in the absence of serum (1 μg of FAD cDNA expression plasmid, 1 μg of HN cDNA expression plasmid, 4 μl of LipofectAMINE, 8 μl of Plus reagent); and then, were cultured for 2 hours in HamF-12 media containing 18% FBS. Then, culture media were exchanged with HamF-12 media containing 10% FBS; and the cells were cultured for additional 67 hours. 72 hours after transfection, cell death was measured by trypan blue exclusion assay. Experiments using synthetic HN polypeptides were conducted as follows: F11 cells (at 7×10^4/well in a 6-well plate) were transfected 3 hours with FAD genes in the absence of serum, as mentioned above; after cultivation for 2 hours in HamF-12 media containing 18% FBS, the cells were cultured for 67 hours in HamF-12 media containing 10% FBS with various concentrations of HN polypeptides; and cell death was measured by trypan blue exclusion assay. ALS-associated mutant cDNAs of SOD1 were also similarly transfected, and examined for their neurotoxicity.
(§3) Trypan blue exclusion assay was performed as follows. Without prewashing, the cells were suspended with gentle pipetting into a serum-free media. 50 μl of 0.4% trypan blue solution (Sigma, Cat. #T-8154) were added (final concentration of 0.08%) to 200 μl cell suspension, and the suspension was mixed at room temperature. Within 3 minutes of the trypan blue solution addition, stained cells were counted. Cell mortality was determined [100−cell survival rate (%)] based on the stained cell count. LDH assay was performed using a kit (LDH-Cytotoxic Test; Wako Pure Chemical Industries, Cat. #299-50601) by sampling 6 μl of media in which neurons were cultured. Calcein staining was performed as described in literature (Bozyczko-Coyne, D. et al. (1993) Journal of Neuroscience Methods 50, 205-216). Specifically, 6 μM Calcein-AM {3′,6′-Di-(O-acetyl)-2′,7′-bis[N,N-bis(carboxymethyl)aminomethyl]fluorescein, tetraacetoxymethyl ester; Dojindo, Cat. #349-07201} was added to the neurons; and 30 minutes or longer after Calcein-AM treatment, fluorescence (ex=490 nm, em=515 nm) was observed by fluorescence microscopy, and measured by a spectrometer. Specific fluorescence was calculated by subtracting basal fluorescence from total fluorescence. Basal fluorescence was assigned to be the value calculated from linear trypan blue positivity-fluorescence intensity relationship, corresponding to 100% trypan blue positivity.

F11 cells [4] = experiment: F11 cell death induced by ALS-associated SOD1 mutants (A4T, G85R, G93A), trypan blue exclusion assay; format: cell-based; settings: 100 μM polypeptide, G85R or G93A SOD1
Experimental: as §2
as §1, with “Basal fluorescence was assigned to be the value calculated from linear trypan blue positivity-fluorescence intensity relationship, corresponding to 100% trypan blue positivity.” left out

[5] = test system: primary cultured cortical neurons; experiment: Aβ1-43-induced cell death of primary cultured cortical neurons (trypan blue, LDH release, Calcein-AM, morphology); format: cell-based, mouse; settings: for effect on Aβ-induced cell death and dystrophic neuritic changes of the axon: 25 μM Aβ1-43, 72 h
Experimental: Primary culture of mouse cortical neurons was performed in poly-D-lysine-coated 24-well plates (Sumitomo Bakelite) in the absence of serum and in the presence of N2 supplement, as described in literature (Eksioglu, Y. Z. et al. (1994) Brain Res. 644, 282-90). The purity of neurons prepared according to the method was >98%. The prepared neurons (1.25×10^5/well, 250 μl media/well) were preincubated in the absence or presence of 10 nM or 10 μM sHN polypeptides for 16 hours; and were treated with 25 μM Aβ1-43 in the absence or presence of sHN polypeptides at the same concentrations for 24 to 72 hours. Since primary cultured neurons are damaged even by temporary dryness during medium exchange, treatment of the cells by Aβ1-43 was performed as follows. First, half of the volume of the old medium (125 μl) was discarded. Then, 125 μl of pre-warmed fresh medium containing 50 μM Aβ1-43 and sHN with a concentration indicated above were added to the culture.
as §3

primary cultured neurons = experiment: Etoposide-induced cell death of primary cultured neurons (trypan blue, LDH release); format: cell-based, mouse; settings: 10 μM polypeptide, 20 μM etoposide, 72 h
Experimental: 25 μM Aβ1-43 was added to primary cultured cortical neurons in the presence (at indicated concentrations) or absence of sHN, sHNG, or sHNA. Addition of HN polypeptides was performed similarly to that described in FIG. 12. 72 hours after the initiation of Aβ treatment, cell death was measured by trypan blue exclusion assay. Primary cultured neurons treated similarly for 72 hours with 20 μM etoposide in the presence or absence of 10 μM sHN or HN derivatives were used as the positive controls in these experiments. Similar experiments were performed at least three times, and reproducible results were obtained. Mean ±S.D. values of three independent experiments are indicated in the graphs.
Cell damage was monitored as the amount of LDH released into the culture media. […] 24, 48, or 72 hours after the initiation of Aβ treatment, the amount of LDH in the culture media was measured. LDH release from neurons treated with 20 μM etoposide in the presence or absence of HN polypeptides was also measured. […]
Trypan blue exclusion assay was performed as follows. […] Within 3 minutes of the trypan blue solution addition, stained cells were counted. Cell mortality was determined [100−cell survival rate (%)] based on the stained cell count. […] Specific fluorescence was calculated by subtracting basal fluorescence from total fluorescence. […]

[6] = 10 μM polypeptide, 25 μM Aβ1-43

`CC[C@H](C)[C@H](NC(=O)[C@H](CCC(=O)O)NC(=O)[C@H](CO)NC(=O)[C@@H](NC(=O)[C@H](CC(C)C)NC(=O)[C@H](CC(C)C)NC(=O)[C@H](CC(C)C)NC(=O)[C@H](CC(C)C)NC(=O)[C@H](CS)NC(=O)[C@H](CO)NC(=O)[C@H](Cc1ccccc1)NC(=O)CNC(=O)[C@H](CCCNC(=N)N)NC(=O)[C@@H]1CCCN1C(=O)[C@H](C)NC(=O)[C@@H](N)CCSC)[C@@H](C)O)C(=O)N[C@@H](CC(=O)O)C(=O)N[C@@H](CC(C)C)C(=O)N1CCC[C@H]1C(=O)N[C@H](C(=O)N[C@@H](CCCCN)C(=O)N[C@@H](CCCNC(=N)N)C(=O)N[C@@H](CCCNC(=N)N)C(=O)N[C@@H](C)C(=O)O)C(C)C` [sHN] was tested, and the “effect of synthetic polypeptide on neuronal death induced by Q79” value (from here on “effect of synthetic polypeptide … by Q79”) (F11/EcR cells [1]) was “not suppressed; also recorded: lack of effects”, the “effect of synthetic polypeptide on cell death caused by ecdysone-induced expression of FAD genes” value (F11/EcR cells [2]) was “complete suppression; also recorded: significant suppressive effect” and the “suppression of cell death induced by V642I APP” value (F11 cells [3]; 10 nM polypeptide, 72 h) was “extremely weak suppression”. For the same molecule, the “suppression of cell death induced by V642I APP” value (F11 cells [3]; 10 μM polypeptide, 72 h) was “dramatically suppressed”, the “concentration achieving complete suppression of cell death induced by V642I APP” value (F11 cells [3]; 72 h) was 1 to 10 µM and the “concentration blocking neuronal death induced by NL-APP, M146L PS-1 and N141I PS-2” value (F11 cells [3]; any of the three FAD genes, 72 h) was 1 µM. For the same molecule, the “effect of synthetic polypeptide on neuronal death induced by SOD1 mutants” value (“effect … by SOD1 mutants” for short) (F11 cells [4]) was “couldn't be suppressed; also recorded: lack of the effect”, the “effect on Aβ-induced cell death and dystrophic neuritic changes of the axon” value ([5]; 10 nM polypeptide) was “did not show any effect” and the “cell damage (LDH released from the cells) after Aβ1-43 treatment” value [5, 6] was “completely restored to a level observed under basal conditions”. For the same molecule, the “cell death (trypan blue exclusion) after Aβ1-43 treatment” value [5, 6] was “completely restored to a level observed under basal conditions”, the “effect on Aβ-induced cell death and dystrophic neuritic changes of the axon” value ([5]; 10 μM polypeptide) was “dramatically suppressed” and the “prevention of the toxic effect of etoposide on primary cultured neurons” value (primary cultured neurons) was “could not prevent”.

For MAPRGFSALLLLTSEIDLPVKRRA [sHNA], the “effect of synthetic polypeptide … by Q79” value (F11/EcR cells [1]) was “Extensive cell death; also recorded: lack of effects”, the “suppression of cell death induced by V642I APP” value (F11 cells [3]; concentrations up to 100 μM) was “did not significantly suppress” and the “antagonism of cell death by NL-APP, M146L PS-1 and N141I PS-2” value (F11 cells [3]; up to a concentration of 100 μM) was “did not antagonize”. For the same molecule, the “effect … by SOD1 mutants” value (F11 cells [4]) was “couldn't be suppressed; also recorded: lack of the effect” and the “effect on Aβ-induced cell death and dystrophic neuritic changes of the axon” value ([5]; 10 μM polypeptide) was “did not show any effect”.

With MAPRGFSCLLLLTGEIDLPVKRRA [sHNG] the “effect of synthetic polypeptide … by Q79” value (F11/EcR cells [1]) was “Extensive cell death; also recorded: lack of effects”, the “effect of synthetic polypeptide on cell death caused by ecdysone-induced expression of FAD genes” value (F11/EcR cells [2]) was “complete suppression” and the “concentration giving complete antagonizing effect on cell death induced by V642I APP” value (F11 cells [3]; 72 h) was ≤ 10 nM. The “concentration completely antagonizing neuronal death induced by all of the four different types of FAD genes” value (F11 cells [3]; V642I APP, NL-APP, M146L PS-1, N141I PS-2) was ≤ 10 nM, the “concentration completely suppressing cell death caused by NL-APP, M146L PS-1 and N141I PS-2” value (F11 cells [3]; any of the FAD genes, 72 h) was ≤ 10 nM and the “enhancement of the action of HN by S14G substitution” value (F11 cells [3]; relative to original HN) was 100 to 1000 fold. For the same molecule, the “effect … by SOD1 mutants” value (F11 cells [4]) was “couldn't be suppressed; also recorded: lack of the effect” and the “effect on Aβ-induced cell death and dystrophic neuritic changes of the axon” value ([5]; 10 nM polypeptide) was “completely protected”.

For “NGF: NGF tested at 100 ng/ml as comparator [reference compound]”, the “antagonism of cell death of neurons induced by Aβ” value ([5]; 100 ng/ml, data not shown) was “did not show effects to antagonize” and the “antagonism of increased LDH release induced by Aβ” value ([5]; 100 ng/ml, data not shown) was “did not show effects to antagonize”.
